Results as given in PubChem BioAssay (NCI).
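1) Cells in 96-well plates. 2) Compound, 48 h, 5 concentrations. 3) Linear interpolation between surrounding doses. 4) Unreached endpoint = highest concentration. TGI: concentration producing complete growth inhibition.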

Experiments:
Assay in all cases: NCI anticancer screen, dose series, 48 h
UO-31 renal = test system: UO-31 renal
SR leukemia = test system: SR leukemia
MALME-3M melanoma = test system: MALME-3M melanoma
K-562 leukemia = test system: K-562 leukemia
NCI/ADR-RES ovarian = test system: NCI/ADR-RES ovarian
HCC-2998 colon = test system: HCC-2998 colon
HT29 colon = test system: HT29 colon
SF-268 CNS = test system: SF-268 CNS
DU-145 prostate = test system: DU-145 prostate
NCI-H522 lung = test system: NCI-H522 lung
OVCAR-8 ovarian = test system: OVCAR-8 ovarian
MDA-N = test system: MDA-N

| Structure (SMILES) | TGI (UO-31 renal) | TGI (SR leukemia) | TGI (MALME-3M melanoma) | TGI (K-562 leukemia) | TGI (NCI/ADR-RES ovarian) | TGI (HCC-2998 colon) | TGI (HT29 colon) | TGI (SF-268 CNS) | TGI (DU-145 prostate) | TGI (NCI-H522 lung) | TGI (OVCAR-8 ovarian) | TGI (MDA-N) |
| --- | --- | --- | --- | --- | --- | --- | --- | --- | --- | --- | --- | --- |
| CCCCCCCCCCCCCCCCCCOCC(O)COP(=O)(O)OCC1OC(n2cc(F)c(=O)[nH]c2=O)CC1O (configuration not stated) | 19.6 µM | 22.6 µM | 33.9 µM | 32.1 µM | 22 µM | 2.92 µM | 23.6 µM | 36.5 µM | 23.5 µM | 27.9 µM | 18.9 µM | 28.2 µM |
| O=C(O)c1ccc(Nc2nc3cc(C(F)(F)F)ccc3nc2C(=O)O)cc1 | > 100 µM | > 100 µM | > 100 µM | > 100 µM | > 100 µM | > 100 µM | > 100 µM | > 100 µM | > 100 µM | > 100 µM | > 100 µM | > 100 µM |
| CCCCSc1n/c(=C\c2ccc(N(C)C)cc2)c2nnnn12 | > 100 µM | > 100 µM | > 100 µM | > 100 µM | > 100 µM | > 100 µM | > 100 µM | > 100 µM | > 100 µM | > 100 µM | > 100 µM | > 100 µM |
| CSc1ncc2c(n1)-c1ccccc1OC2N1CCCC1 (configuration not stated) | > 100 µM | > 100 µM | – | > 100 µM | > 100 µM | – | > 100 µM | > 100 µM | > 100 µM | > 100 µM | > 100 µM | > 100 µM |
| CSC(=NC1=NC(C(F)(F)F)(C(F)(F)F)N=C(c2ccccc2)O1)SC | 89.2 µM | 76.1 µM | 37.7 µM | > 100 µM | 90.9 µM | 39.6 µM | 61 µM | > 100 µM | 45 µM | 25 µM | > 100 µM | 41.7 µM |
| Cc1ccc(S(=O)(=O)N2CCN(CCN(C)CCN3CCN(S(=O)(=O)c4ccc(C)cc4)CC3)CC2)cc1 | 26.8 µM | 36.3 µM | 33.7 µM | 35.2 µM | 43.1 µM | 29.4 µM | 29.9 µM | 40.1 µM | 68.5 µM | 38.9 µM | 32.7 µM | 39.7 µM |
| COC1/C=C/C(C)C(C(C)C(OC)C(C)CCC(=O)C(C)C(CCC(=O)O)OC)OC(=O)/C=C/C=C(\C)CC(OC)CC2=CC(=O)O[C@@H](C(C)C(OC)CC(OC)/C=C/C(C)C(OC)C1)[C@H]2O (some centres not stated) | – | > 4.14 µM | 2.94 µM | > 5 µM | > 5 µM | > 5 µM | > 5 µM | > 2.47 µM | > 5 µM | > 5 µM | > 5 µM | > 5 µM |
| N#CCCN(CCCN(C(=O)Nc1ccccc1)c1ccccc1)C(=O)Nc1ccccc1 | > 100 µM | > 100 µM | > 100 µM | > 100 µM | > 100 µM | > 100 µM | > 100 µM | – | > 100 µM | > 100 µM | > 100 µM | > 100 µM |
| COc1ccc2c(c1)CCc1c-2n(CCN(C)C)c2ccc(OC)cc12 | 47.8 µM | > 100 µM | 53.5 µM | > 100 µM | 46.1 µM | > 100 µM | > 100 µM | > 100 µM | > 100 µM | 75.9 µM | 51 µM | 95.2 µM |
| CCOP(=O)(OCC)C(Nc1ccc(F)cc1)c1cccc([N+](=O)[O-])c1 (configuration not stated) | > 100 µM | > 100 µM | > 100 µM | > 100 µM | > 100 µM | > 100 µM | > 100 µM | > 100 µM | > 100 µM | > 100 µM | > 100 µM | > 100 µM |
| Cc1ccc(O)c(C2=NNC(c3cccc(Br)c3)C2)c1 (configuration not stated) | > 100 µM | > 100 µM | > 100 µM | > 100 µM | > 100 µM | > 100 µM | > 100 µM | > 100 µM | > 100 µM | > 100 µM | > 100 µM | > 100 µM |
| O=C(O)c1ccccc1/C=N\NC1=NCCCCN1 | > 100 µM | > 100 µM | > 100 µM | > 100 µM | > 100 µM | > 100 µM | > 100 µM | > 100 µM | > 100 µM | > 100 µM | > 100 µM | > 100 µM |
| O=C(/C=C/c1ccc([N+](=O)[O-])cc1)c1nc2ccccc2[nH]1 | > 100 µM | 11.3 µM | > 100 µM | > 61.5 µM | > 100 µM | – | > 100 µM | > 100 µM | > 100 µM | > 100 µM | > 100 µM | > 100 µM |
| Cc1ccc2c(c1)OC1Nc3ccccc3C1=C2O (configuration not stated) | 61.6 µM | > 100 µM | > 100 µM | > 100 µM | 86.3 µM | 33.9 µM | > 100 µM | > 100 µM | > 100 µM | > 100 µM | > 100 µM | 68.1 µM |
| Cc1cc(S(=O)(=O)Nc2nnc3cc(C(F)(F)F)cc(C)n23)c(S)cc1Cl | > 100 µM | > 100 µM | > 100 µM | > 100 µM | > 100 µM | > 70.1 µM | > 100 µM | > 100 µM | > 100 µM | > 100 µM | > 100 µM | > 100 µM |
| O=C(NCCO)c1ccc(Cl)cc1 | > 100 µM | > 100 µM | > 100 µM | > 100 µM | > 100 µM | > 100 µM | > 100 µM | > 100 µM | > 100 µM | > 100 µM | > 100 µM | > 100 µM |
| O=C(NNC(=S)Nc1ccccc1)c1csc(NC(=S)NC2CCCCC2)n1 | 79.6 µM | > 100 µM | > 100 µM | – | > 100 µM | > 100 µM | > 100 µM | > 100 µM | > 100 µM | > 100 µM | > 100 µM | > 100 µM |
| O=C(Nc1cccc(-c2cn3ccccc3n2)c1)c1ccncc1 | > 100 µM | 71.7 µM | > 100 µM | 61 µM | 65.1 µM | > 100 µM | > 100 µM | > 100 µM | > 100 µM | 72.4 µM | > 100 µM | > 100 µM |
| CSCCC(NC(=O)OC(C)(C)C)C(=O)NCCNc1ccc(NCCNC(=O)C(CCSC)NC(=O)OC(C)(C)C)c2c1C(=O)c1ccccc1C2=O (configuration not stated) | > 100 µM | 11.3 µM | 9.35 µM | > 32.7 µM | > 100 µM | 5.99 µM | 7.51 µM | 18.7 µM | 33.2 µM | 3.38 µM | 5.4 µM | 7.03 µM |
